Our source for the GI50 values is US10342796B2, “Acrylanilide derivative, preparation method, and applications thereof in pharmacy” (Ancureall Pharmaceutical (Shanghai) Co., Ltd., priority 2015, dated 2019).

Where two headings read alike, the source gives them in different places.

Common to all, as to experiment: Growth inhibition GI50 in vitro (CCK8/MTT, 72 h)
Common to all, as to assay type: cell-based, human

In test [1] the test system is SK-BR-3 (Her2 amp). Conditions: HER2 positive cell line, range of GI50, read-out: GI50 SK-BR-3. Here is the method: Human lung adenocarcinoma cell line Calu-3 (ATCC) was cultured with 1×MEM complete medium (10% FBS, 1% double-antibiotics, 1% NEAA (Gibco), 2 mM glutamine and 1 mM of sodium pyruvate). Human breast cancer cell line SK-BR-3 was cultured with McCOY'S5A complete medium (10% FBS). Human colon cancer cell line SNU1040 (HER2 V777M positive) (ATCC) and human bronchoalveolar adenocarcinoma cell line NCI-H1781 (expressing HER2 exon 20 G776VC mutation) (ATCC) were cultured with 1×RPMI1640 complete medium (10% FBS), respectively.
(§1) The suspension cells were collected by centrifugation. The supernatant was discard and the cell pellet was resuspended and counted. Different cell concentrations (5˜10×10^4 cells/mL) were prepared according to the growth cycle of each cell line and then seeded on a 96-well plate (Corning), 100 μL/well. The cells were incubated over night at 37° C., 5% CO2. The compounds were added to the cells on the second day with 2 wells in parallel. The final concentration of organic solvent shall not exceed 1%. The cells were continually incubated for 72 h, and then subjected to MTT assay.
(§2) The present compounds and the reference compounds were dissolved with DMSO (Sigma), respectively. […] The storage concentration of compounds was 10 mM and kept at −20° C. They were diluted by 2 times or 10 times with serial dilution before using.
(§3) Dojindo CCK8 reagent kit was used as MTT assay. […] FC meter was used as microplate reader.
(§4) Adherent cell culture medium was discard and immediately replaced with fresh prepared medium which contains 10% CCK8 reagent (100 μL/well). For the suspension cells, CCK8 was directly added to 10% of the final concentration. The cells were continually incubated for 1˜4 h. When the color of control wells turned to dark yellow, the absorption value was measured at OD450 nm. The cell growth rate was calculated according to the following formula: cell growth rate (%)=100*(T−T0)/(C−T0), T=optical density of drug treatment cell well—optical density of blank control well; T0=optical density of cell well before drug treatment—optical density of blank control well; C=optical density of cell well of solvent control group—optical density of blank control well. […] The experiment was independently repeated 1˜3 times, and subject to biological statistical analysis.

The subject of test [2] is N87 (HER2 Amp).
The test system of test [3] is H460 (EGFR wt, Kras G61H). Conditions: EGFR wild type cell line, range of GI50, read-out: GI50 H460.
From the text: (§5) EGFR wild type cell lines: human epidermal cancer cell line A431 (EGFR WT, amplification and high expression, from Shanghai Cell Bank of Chinese Academy of Sciences and ATCC), NSCLC cell lines NCI-H460 (EGFR WT, Kras G61H and PI3KCA E545K mutants, ATCC) and NCI-H1299 (EGFR WT, ATCC), melanoma cell line A375 (EGFR WT and BRAF V600E mutant, from Shanghai Cell Bank of Chinese Academy of Sciences, ATCC), human lung cancer cell line NCI-H292 (EGFR WT, from human lung mucoepidermoid carcinoma/lymphatic metastasis, purchased from Shanghai Cell Bank of Chinese Academy of Sciences) were cultured with 1×RPMI1640 complete medium which was supplement with 10% FBS. NSCLC cell line A549 (EGFR WT and Kras G12S mutant, from Shanghai Cell Bank of Chinese Academy of Sciences) was cultured with 1×Ham'S F12K complete medium which was supplement with 10% FBS, 1% double-antibiotics and 2 mM glutamine.
as §1, §2, §3, §4

For test [4], the system named is H1299 (EGFR wt, Nras Q61K). Particulars: EGFR wild type cell line, range of GI50, read-out: GI50 H1299.
From the text: as §5, §1, §2, §3, §4

The subject of test [5] is A431 (EGFR WT, amplification and high expression). Conditions: EGFR wild type cell line, range of GI50, read-out: GI50 A431.
From the text: as §5, §1, §2, §3, §4

Test [6] relates to A549 (EGFR WT).
From the text: as §5, §1, §2, §3, §4

In test [7] the test system is H1975 (EGFR L858R/T790M). The protocol: (§6) PC-9ER is an acquired Erlotinib resistance cell line of PC-9 cells developed by the investor. […] The four cell lines above were cultured with 1×RPMI1640 complete medium (supplement with 10% FBS). Human colon cancer cell line SW48 (EGFR G719S positive, ATCC). was cultured with L15 complete medium (10% FB S).
as §1, §2, §3, §4

Test [8] has as its system HCC827 (EGFR dE746-A750). Particulars: EGFR mutant cell line, range of GI50, read-out: GI50 HCC827. The protocol: as §6, §1, §2, §3, §4
In test [9] the test system is PC-9ER (EGFR delE746-A750/T790M). Particulars: EGFR mutant cell line, range of GI50, read-out: GI50 PC9ER. The protocol: as §6, §1, §2, §3, §4
In test [10] the test system is PC-9 (EGFR dE746-A750). The protocol: as §6, §1, §2, §3, §4
Test [11] has as its system AU565 (Her2 amp). Particulars: HER2 positive cell line, range of GI50, read-out: GI50 AU-565.
Setting [12] is: Homo sapiens, HER2 positive cell line, range of GI50, read-out: GI50 N87.
[13] abbreviates: Homo sapiens, A549, EGFR wild type cell line, range of GI50, read-out: GI50 A549.
Setting [14] is: Homo sapiens, NCI-H1975, EGFR mutant cell line, range of GI50, read-out: GI50 H1975.
Setting [15] is: Homo sapiens, EGFR mutant cell line, range of GI50, read-out: GI50 PC-9.
[16] abbreviates: Homo sapiens, Table 13, 72 h, read-out: Range of GI50 N87 (HER2 Amp).
Where [17] appears, read: Homo sapiens, A549, Table 13, 72 h, read-out: Range of GI50 A549 (EGFR WT).
The mark [18] stands for this setting: Homo sapiens, NCI-H1975, Table 13, 72 h, read-out: Range of GI50 H1975 (EGFR L858R/T790M).
Where [19] appears, read: Homo sapiens, Table 13, 72 h, read-out: Range of GI50 PC-9 (EGFR dE746-A750).

Take `C=CC(=O)Nc1cc(Nc2nccc(Nc3cccc(Br)c3)n2)c(OC)cc1N(C)CCN(C)C` [Compound 1, N-(5-(4-(3-bromophenylamino)-pyrimidin-2-ylamino)-2-(2-(dimethylamino-ethyl)-methyl-amino)-4-methoxyl-phenyl)-acrylamide]: the GI50 in test [1] (Homo sapiens, SK-BR-3) was 10 to 100 nM; in [2] (setting [12]), 10 to 100 nM; in test [3] (Homo sapiens, NCI-H460), over 1000 nM; in test [4] (Homo sapiens, NCI-H1299), over 1000 nM; in test [5] (Homo sapiens, A-431) it was 100 to 1000 nM; in test [6] (setting [13]) it was over 1000 nM. Moreover, the GI50 in [7] (setting [14]) was 10 to 100 nM; in test [8] (Homo sapiens, HCC827), under 10 nM; in test [9] (Homo sapiens, PC-9/ER), 10 to 100 nM; in [10] (setting [15]), 10 to 100 nM; in test [11] (Homo sapiens, AU565) it was 10 to 100 nM.
In the case of `C=CC(=O)Nc1cc(Nc2nccc(Nc3cccc(F)c3)n2)c(OC)cc1N(C)CCN(C)C` [Compound 3, N-(5-(4-(3-fluoro-phenylamino)-pyrimidin-2-ylamino)-2-(2-(dimethylamino-ethyl)-methyl-amino)-4-methoxyl-phenyl)-acrylamide], the GI50 is 10 to 100 nM in test [1] (Homo sapiens, SK-BR-3); 10 to 100 nM in test [2] (setting [12]); over 1000 nM in [3] (Homo sapiens, NCI-H460); over 1000 nM in test [4] (Homo sapiens, NCI-H1299); 100 to 1000 nM in [5] (Homo sapiens, A-431); over 1000 nM in test [6] (setting [13]). Moreover, the GI50 in test [7] (setting [14]) was 10 to 100 nM; in test [8] (Homo sapiens, HCC827), under 10 nM; in test [9] (Homo sapiens, PC-9/ER), under 10 nM; in test [10] (setting [15]), under 10 nM; in [11] (Homo sapiens, AU565), 10 to 100 nM.
As to `C#Cc1cccc(Nc2ccnc(Nc3cc(NC(=O)C=C)c(N(C)CCN(C)C)cc3OC)n2)c1` [Compound 8, N-(5-(4-(3-acetenyl-phenylamino)-pyrimidin-2-ylamino)-2-(2-(dimethylamino-ethyl)-methyl-amino)-4-methoxyl-phenyl)-acrylamide], the GI50 in test [1] was 10 to 100 nM; in test [2] (HER2 positive cell line, range of GI50, read-out: GI50 N87) it was 10 to 100 nM; in [3], over 1000 nM; in test [4] it was over 1000 nM; in [5], 100 to 1000 nM; in test [6] (EGFR wild type cell line, range of GI50, read-out: GI50 A549), over 1000 nM. For the same compound, the GI50 in test [7] (EGFR mutant cell line, range of GI50, read-out: GI50 H1975) was 10 to 100 nM; in test [8], 10 to 100 nM; in [9] it was under 10 nM; in test [10] (EGFR mutant cell line, range of GI50, read-out: GI50 PC-9), 10 to 100 nM; in [11], 100 to 1000 nM.
Consider `C=CC(=O)Nc1cc(Nc2ncnc(Nc3cccc(Br)c3)n2)c(OC)cc1N1CCC(N2CCCCC2)CC1` [Compound 119, N-{2-[1,4′]-piperidin-1′-yl-5-[4-(3-bromo-phenylamino)-[1,3,5]triazin-2-amino]-4-methoxyl-phenyl}-acrylamide], for which the GI50 in [1] (Homo sapiens, SK-BR-3) was 10 to 100 nM; in test [2] (setting [12]), under 10 nM; in [5] (Homo sapiens, A-431), 100 to 1000 nM; in test [7] (setting [14]) it was under 10 nM; in [8] (Homo sapiens, HCC827), under 10 nM; in test [10] (setting [15]), under 10 nM. Besides, in test [11] (Homo sapiens, AU565), the GI50 was under 10 nM.
`C=CC(=O)Nc1cc(Nc2ncnc(Nc3cccc(Br)c3)n2)c(OC)cc1N1CCCN(C)CC1` [Compound 130, N-[5-[4-(3-bromo-phenylamino)-[1,3,5]triazin-2-ylamino]-4-methoxyl-2-(4-methyl-[1,4]diazepane-1-yl)-phenyl]-acrylamide]: the GI50 in test [1] (Homo sapiens, SK-BR-3) is 10 to 100 nM; in [2] (setting [12]), under 10 nM; in [5] (Homo sapiens, A-431), 100 to 1000 nM; in test [7] (setting [14]) it was 10 to 100 nM; in [8] (Homo sapiens, HCC827), under 10 nM; in test [10] (setting [15]), 10 to 100 nM. Moreover, in [11] (Homo sapiens, AU565), the GI50 is under 10 nM.
Regarding `C=CC(=O)Nc1cc(Nc2cc(Nc3ccc(O)c(Cl)c3)ncn2)c(OC)cc1N(C)CCN(C)C` [Compound 253, N-(5-(6-(3-chloro-4-hydroxylphenylamino)-pyrimidin-4-ylamino)-2-((2-dimethylamino-ethyl)-methyl-amino)-4-methoxyl-phenyl)-acrylamide], the GI50 was 10 to 100 nM in test [2] (setting [16]), over 1000 nM in test [6] (setting [17]), 10 to 100 nM in [7] (setting [18]) and 10 to 100 nM in [10] (setting [19]).
For the compound `C=CC(=O)Nc1cc(Nc2cc(Nc3ccc(OCC4CCCO4)c(Cl)c3)ncn2)c(OC)cc1N(C)CCN(C)C` (stereo not drawn) [Compound 254, N-(5-(6-(3-chloro-4-(tetrahydrofuran-2-ylmethoxy)-phenylamino)-pyrimidin-4-ylamino)-2-((2-dimethylamino-ethyl)-methyl-amino)-4-methoxyl-phenyl)-acrylamide], the GI50 in test [2] (setting [16]) is 10 to 100 nM; in test [6] (setting [17]), over 1000 nM; in test [7] (setting [18]), 10 to 100 nM; in [10] (setting [19]), 10 to 100 nM.
As for `C=CC(=O)Nc1cc(Nc2cc(Nc3ccc(OC)c(C#N)c3)ncn2)c(OC)cc1N(C)CCN(C)C` [Compound 255, N-(5-(6-(3-cyano-4-methoxyphenylamino)-pyrimidin-4-yl-amino)-2-((2-dimethylamino-ethyl)-methyl-amino)-4-methoxyl-phenyl)-acrylamide], the GI50 in test [2] (setting [16]) was 10 to 100 nM; in [6] (setting [17]), over 1000 nM; in test [7] (setting [18]) it was 10 to 100 nM; in [10] (setting [19]), 10 to 100 nM.
In the case of `C=CC(=O)Nc1cc(Nc2cc(Nc3ccc(OC)c(C(C)=O)c3)ncn2)c(OC)cc1N(C)CCN(C)C` [Compound 256, N-(5-(6-(3-acetyl-4-methoxyphenylamino)-pyrimidin-4-yl-amino)-2-((2-dimethylamino-ethyl)-methyl-amino)-4-methoxyl-phenyl)-acrylamide], the GI50 in test [2] (setting [16]) is 10 to 100 nM; in [6] (setting [17]), over 1000 nM; in test [7] (setting [18]), 10 to 100 nM; in [10] (setting [19]), 10 to 100 nM.
